Source: paper PMC7827014, “Synthetic Transition from Thiourea-Based Compounds to Tetrazole Derivatives: Structure and Biological Evaluation of Synthesized New N-(Furan-2-ylmethyl)-1H-tetrazol-5-amine Derivatives” (Molecules, 2021)
In brackets after ≈: the same amount, converted by molar mass. Like-named read-outs stand apart in the source and are kept apart here.

Experiments:
E. hirae ATCC 10541 [1] = test: MIC microdilution, standard strain; type: cell-based
S. aureus NCTC 4163 [2] = test: MIC microdilution, standard strain; type: cell-based; settings: Staphylococcus aureus
S. aureus ATCC 29213 = test: MIC microdilution, standard strain; type: cell-based; settings: Staphylococcus aureus
[3] = tested on: S. epidermidis ATCC 12228; test: MIC microdilution, standard strain; type: cell-based
E. coli ATCC 25922 = test: MIC microdilution, standard strain; type: cell-based; settings: E. coli ATCC 25922, 18 h, 35 °C
E. coli NCTC 8196 = test: MIC microdilution, standard strain; type: cell-based; settings: E. coli NCTC 8196, 18 h, 35 °C
M. tuberculosis H37Rv = test: In vitro antitubercular MIC; type: cell-based; settings: Mycobacterium tuberculosis, read-out: Minimal inhibitory concentration
[4] = tested on: M. tuberculosis INH susceptible (Spec. 192); test: In vitro antitubercular MIC; type: cell-based; settings: Mycobacterium tuberculosis, read-out: Minimal inhibitory concentration
Caco-2 = test: MTT assay 72 h; type: cell-based; settings: Homo sapiens
Experimental: (§1) The cell viability was assessed by using an enzymatic conversion of 3-(4,5-dimethylthiazol-2-yl)-2,5-diphenyltetrazolium bromide salt (MTT) to insoluble formazan crystals by mitochondrial dehydrogenases, occurring in living cells. Cells were cultured in 96-well plates at a density of l × 10^4 cells per well, and cultured to adhere for 24 h at 37 °C in a CO2 incubator. After 24 h of incubation, culture medium was replaced with a fresh medium, then cells were treated with various concentrations of the compounds and incubated for 72 h at 37 °C in a CO2 incubator. Untreated cells were used as the control. Subsequently, MTT solution (0,5 mg/mL in free-serum medium) was added, and samples were incubated for 4 h at 37 °C in a CO2 incubator. Then, the medium was aspirated, and formed formazan crystals were solubilized by adding an isopropanol-DMSO mixture (1:1 vol). The intensity of the dissolved crystals was measured using a UVM 340 reader (ASYS Hitech GmbH, Austria), at a wavelength of 570 nm. Cell viability was presented as a percent of MTT reduced in treated cells versus control cells (incubated without tested compounds). The relative MTT level (%) was calculated as [A]/[B]×100, where [A] is the absorbance of the test sample, and [B] is the absorbance of the control sample containing the untreated cells. The IC50 value was estimated using CalcuSyn version 1.0. […]
(§2) Antiproliferative activity of tested compounds. Data are given as IC50 [µM] and SI.
(§3) Human immortal keratinocyte cell line from adult human skin (HaCaT), Human colorectal adenocarcinoma (CaCo-2), Human epithelial lung carcinoma cell line (A549) and Human melanoma cell line (HTB-140). Data are expressed as mean ± SD. The SI (Selectivity Index) was calculated for each compound using formula: SI = IC50 for normal cel line / IC50 cancer cel line.

A549 = test: MTT assay 72 h; type: cell-based, human
Experimental: as §1, §2, §3

HTB-140 = test: MTT assay 72 h; type: cell-based, human; settings: HTB-140, MTT 72 h, mean ± SD
Experimental: as §1, §2, §3

HaCaT = test: MTT assay 72 h; type: cell-based, human
Experimental: as §1, §2, §3

S. aureus NCTC 4163 [5] = tested on: S. aureus NCTC 4163; design: method as in PMID 30031974; settings: previous project ref 20; cited from earlier work
[6] = tested on: S. epidermidis ATCC 12228; design: method as in PMID 30031974; settings: previous project ref 20; cited from earlier work
E. hirae ATCC 10541 [7] = tested on: E. hirae ATCC 10541; design: method as in PMID 30031974; settings: previous project ref 20; cited from earlier work
P. aeruginosa ATCC 27853 = tested on: P. aeruginosa ATCC 27853; design: method as in PMID 30031974; settings: previous project ref 20; cited from earlier work
P. aeruginosa ATCC 15442 = tested on: P. aeruginosa ATCC 15442; design: method as in PMID 30031974; settings: previous project ref 20; cited from earlier work
[8] = tested on: standard bacterial strains; design: method as in PMID 30031974; settings: various standard bacterial strains; cited from earlier work
[9] = tested on: hospital staphylococcal isolates; design: method as in PMID 30031974; settings: clinical cocci; cited from earlier work
[10] = NCTC4163, S. aureus NCTC 4163, 18 h, 35 °C, read-out: MIC
[11] = ATCC29213, S. aureus ATCC 29213, 18 h, 35 °C, read-out: MIC
[12] = Escherichia coli, ATCC25922, read-out: MIC
[13] = Escherichia coli, NCTC8196, read-out: MIC
[14] = Caco-2, MTT 72 h, mean ± SD, read-out: IC50
[15] = Homo sapiens, A549, MTT 72 h, mean ± SD, read-out: IC50
[16] = Homo sapiens, HaCaT normal cells, MTT 72 h, mean ± SD, read-out: IC50
[17] = Staphylococcus epidermidis, ATCC12228, S. epidermidis ATCC 12228, 18 h, 35 °C, read-out: MIC
[18] = Enterococcus hirae, ATCC10541, E. hirae ATCC 10541, 18 h, 35 °C, read-out: MIC

| SMILES | MIC (M. tuberculosis H37Rv) | MIC [4] | IC50 (Caco-2; [14]) | IC50 (A549; [15]) | IC50 (HTB-140; Homo sapiens) | IC50 (HaCaT; [16]) | other results |
| --- | --- | --- | --- | --- | --- | --- | --- |
| O=C(O)c1cn(C2CC2)c2cc(N3CCNCC3)c(F)cc2c1=O [Ciprofloxacin, reference compound] | – | – | – | – | – | – | MIC (E. hirae ATCC 10541 [1]; Enterococcus hirae, ATCC10541, 18 h): 2 µg/mL (≈ 6.04 µM) |
| Fc1ccc(-n2nnnc2NCc2ccco2)cc1 [Compound 1, 1-(4-fluorophenyl)-N-(furan-2-ylmethyl)-1H-tetrazol-5-amine] | 256 µg/mL (≈ 987 µM) | 256 µg/mL (≈ 987 µM) | > 100 µM | > 100 µM | > 100 µM | > 100 µM | MIC (S. aureus NCTC 4163 [2]; [10]): 64 µg/mL (≈ 247 µM); MIC (S. aureus ATCC 29213; [11]): 64 µg/mL (≈ 247 µM); MIC ([3]; Staphylococcus epidermidis, ATCC12228, 18 h): 256 µg/mL (≈ 987 µM); MIC (E. coli ATCC 25922; [12]): 128 µg/mL (≈ 494 µM); MIC (E. coli NCTC 8196; [13]): 128 µg/mL (≈ 494 µM) |
| Cc1ccc(Cl)cc1-n1nnnc1NCc1ccco1 [Compound 2, 1-(5-chloro-2-methylphenyl)-N-(furan-2-ylmethyl)-1H-tetrazol-5-amine] | > 512 µg/mL | > 512 µg/mL | > 100 µM | > 100 µM | > 100 µM | > 100 µM | MIC (S. aureus NCTC 4163 [2]; [10]): 64 µg/mL (≈ 221 µM); MIC (S. aureus ATCC 29213; [11]): 64 µg/mL (≈ 221 µM); MIC [3, 17]: 256 µg/mL (≈ 884 µM); MIC (E. hirae ATCC 10541 [1]; [18]): 64 µg/mL (≈ 221 µM); MIC (E. coli ATCC 25922; [12]): 128 µg/mL (≈ 442 µM); MIC (E. coli NCTC 8196; [13]): 128 µg/mL (≈ 442 µM) |
| Clc1cccc(-n2nnnc2NCc2ccco2)c1 [Compound 4, 1-(3-chlorophenyl)-N-(furan-2-ylmethyl)-1H-tetrazol-5-amine] | > 512 µg/mL | 512 µg/mL (≈ 1860 µM) | > 100 µM | > 100 µM | > 100 µM | > 100 µM | MIC (S. aureus NCTC 4163 [2]; NCTC4163, 18 h): 256 µg/mL (≈ 929 µM); MIC (S. aureus ATCC 29213; ATCC29213, 18 h): 256 µg/mL (≈ 929 µM); MIC [3, 17]: 512 µg/mL (≈ 1860 µM); MIC (E. hirae ATCC 10541 [1]; [18]): 512 µg/mL (≈ 1860 µM); MIC (E. coli ATCC 25922): >; MIC (E. coli NCTC 8196; [13]): 512 µg/mL (≈ 1860 µM) |
| Clc1ccc(-n2nnnc2NCc2ccco2)cc1Cl [Compound 5, 1-(3,4-dichlorophenyl)-N-(furan-2-ylmethyl)-1H-tetrazol-5-amine] | > 512 µg/mL | > 512 µg/mL | > 100 µM | > 100 µM | > 100 µM | > 100 µM | – |
| Brc1cccc(-n2nnnc2NCc2ccco2)c1 [Compound 7, 1-(3-bromophenyl)-N-(furan-2-ylmethyl)-1H-tetrazol-5-amine] | 512 µg/mL (≈ 1600 µM) | 512 µg/mL (≈ 1600 µM) | > 100 µM | > 100 µM | > 100 µM | > 100 µM | – |
| Clc1ccc(-n2nnnc2NCc2ccco2)cc1 [Compound 8, 1-(4-chlorophenyl)-N-(furan-2-ylmethyl)-1H-tetrazol-5-amine] | 256 µg/mL (≈ 929 µM) | 512 µg/mL (≈ 1860 µM) | > 100 µM | > 100 µM | > 100 µM | > 100 µM | MIC (S. aureus NCTC 4163 [2]; [10]): 128 µg/mL (≈ 464 µM); MIC (S. aureus ATCC 29213; [11]): 128 µg/mL (≈ 464 µM); MIC ([3]; S. epidermidis ATCC 12228, 18 h, 35 °C): >; MIC (E. hirae ATCC 10541 [1]; E. hirae ATCC 10541, 18 h, 35 °C): >; MIC (E. coli ATCC 25922): >; MIC (E. coli NCTC 8196): > |
| Fc1cccc(-n2nnnc2NCc2ccco2)c1 [Compound 9, 1-(3-fluorophenyl)-N-(furan-2-ylmethyl)-1H-tetrazol-5-amine] | 256 µg/mL (≈ 987 µM) | 256 µg/mL (≈ 987 µM) | > 100 µM | > 100 µM | > 100 µM | > 100 µM | – |
| Brc1ccc(-n2nnnc2NCc2ccco2)cc1 [Compound 10, 1-(4-bromophenyl)-N-(furan-2-ylmethyl)-1H-tetrazol-5-amine] | > 512 µg/mL | > 512 µg/mL | > 100 µM | > 100 µM | > 100 µM | > 100 µM | – |
| Clc1ccccc1-n1nnnc1NCc1ccco1 [Compound 11, 1-(2-chlorophenyl)-N-(furan-2-ylmethyl)-1H-tetrazol-5-amine] | 512 µg/mL (≈ 1860 µM) | 256 µg/mL (≈ 929 µM) | > 100 µM | > 100 µM | > 100 µM | > 100 µM | – |
| Brc1ccccc1-n1nnnc1NCc1ccco1 [Compound 12, 1-(2-bromophenyl)-N-(furan-2-ylmethyl)-1H-tetrazol-5-amine] | 512 µg/mL (≈ 1600 µM) | 512 µg/mL (≈ 1600 µM) | > 100 µM | > 100 µM | > 100 µM | > 100 µM | – |
| NNC(=O)c1ccncc1 [INH, isoniazid, reference compound] | ≤ 0.0625 µg/mL | ≤ 0.0625 µg/mL | – | – | – | – | – |
| Cc1ccc(-n2nnnc2NCc2ccco2)cc1Cl [Ref 1, 1-(3-chloro-4-methylphenyl)-N-(furan-2-ylmethyl)-1H-tetrazol-5-amine] | – | – | – | – | – | – | MIC (S. aureus NCTC 4163 [5]): 4 µg/mL (≈ 13.8 µM); MIC [6]: 2 µg/mL (≈ 6.9 µM); MIC (E. hirae ATCC 10541 [7]): 8 µg/mL (≈ 27.6 µM); MIC (P. aeruginosa ATCC 27853): 4 µg/mL (≈ 13.8 µM); MIC (P. aeruginosa ATCC 15442): 32 µg/mL (≈ 110 µM) |
| Fc1ccc(-n2nnnc2NCc2ccco2)cc1Cl [Ref 2, 1-(3-chloro-4-fluorophenyl)-N-(furan-2-ylmethyl)-1H-tetrazol-5-amine] | – | – | – | – | – | – | MIC (S. aureus NCTC 4163 [5]): 2 µg/mL (≈ 6.81 µM); MIC [6]: 2 µg/mL (≈ 6.81 µM); MIC (E. hirae ATCC 10541 [7]): 4 µg/mL (≈ 13.6 µM); MIC (P. aeruginosa ATCC 27853): 2 µg/mL (≈ 6.81 µM); MIC (P. aeruginosa ATCC 15442): 64 µg/mL (≈ 218 µM); MIC (range) [8]: 0.25 to 4 µg/mL; MICs (range) [9]: 2 to 16 µg/mL |
| N.N.[Cl][Pt][Cl] [cisplatin, reference compound] | – | – | – | – | – | – | IC50 (A549; A549, MTT 72 h, mean ± SD, read-out: IC50): 1.95 µM; IC50 (HTB-140): 1.13 µM; IC50 (HaCaT; HaCaT normal cells, MTT 72 h, mean ± SD, read-out: IC50): 2.84 µM |
| COc1cccc2c1C(=O)c1c(O)c3c(c(O)c1C2=O)C[C@@](O)(C(=O)CO)C[C@@H]3O[C@H]1C[C@H](N)[C@H](O)[C@H](C)O1 [doxorubicin, reference compound] | – | – | – | – | – | – | IC50 (Caco-2; Caco-2, 72 h): 0.53 µM; IC50 (A549; Homo sapiens, A549, 72 h): 0.63 µM; IC50 (HaCaT; Homo sapiens, HaCaT, 72 h): 1.09 µM |
